In patent US7736911B2, “Activity-based probes for protein tyrosine phosphatases” (Albert Einstein College of Medicine of Yeshiva University, priority 2004, dated 2010):

How the values were obtained:
[1] = system: PTPs: YopH, PTP1B, HePTP, SHP2, FAP-1, PTPα, DEP-1, VHR, Cdc14, PRL3, low molecular weight PTP; format: binding; details: pH 6
[2] = Solubility in aqueous solution; format: physicochemical; details: compared with II
[3] = system: total cell lysates from E. coli; format: binding
[4] = system: panel of non-PTP enzymes/proteins; format: binding
[5] = Stability of probe in buffers and toward nucleophiles (NMR and mass spectrometry)
[6] = system: PTPs, including PTP1B, HePTP, SHP2, LAR, PTPα, PTPH1, VHR, and Cdc14; assay: PTP inactivation by BBP-based probes, several PTPs (pNPP substrate); format: biochemical; details: for effectiveness at inhibiting PTP activity, I compared with II: pNPP as substrate

With `O=C(CCCCC1SCC2NC(=O)NC21)NCc1ccc(C(Br)P(=O)(O)O)cc1` (stereo not shown) [Compound I, [Bromo-(4-{[5-(2-oxo-hexahydro-thieno[3,4-d]imidazol-6-yl)-pentanoylamino]-methyl}-phenyl)-methyl]-phosphonic acid] as the molecule, how does the “covalent labeling of PTPs” value [1] read?
The value was “covalently incorporated into all PTPs tested”.

And the “solubility in aqueous solution” value [2]?
Its value is “better solubility in aqueous solution”.

And the “labeling of E. coli proteins” value [3]?
The value was “no E. coli proteins were labeled”.

What about the “reactivity towards non-PTP enzymes/proteins” value [4] of the same molecule?
Its value is “none of the proteins tested were reactive”.

What about the “reaction with nucleophilic agents” value ([5]; 48 hours with 100 mM DTT, 50 mM azide or 50 mM cysteine, pH 6 or 7 buffers) of the same molecule?
Its value is “did not produce the expected substitution products”.

And the stability in buffer ([5]; pH 6 buffers)?
The stability in buffer was “quite stable”.

What about the “stability in buffer (solvolysis)” value ([5]; pH>7) of the same molecule?
The value was “significant solvolysis could be detected”.

What about the “effect of scavenging nucleophiles on rate of PTP inactivation” value [6] of the same molecule?
Its value is “did not affect the rate”.

And the “reversibility of PTP inactivation” value ([6]; extensive dialysis and/or buffer exchange of the reaction mixture)?
Its value is “irreversible”.

What about the “effectiveness at inhibiting PTP activity, I compared with II” value [6] of the same molecule?
The value was “equally effective at inhibiting PTP activity”.

For `O=C(CCCCC1SCC2NC(=O)NC21)NCCCCCC(=O)NCc1ccc(C(Br)P(=O)(O)O)cc1` (stereo not shown) [Compound II, {Bromo-[4-({6-[5-(2-oxo-hexahydro-thieno[3,4-d]imidazol-6-yl)-pentanoylamino]-hexanoylamino}-methyl)-phenyl]-methyl}-phosphonic acid], which “effectiveness at inhibiting PTP activity, I compared with II” value [6] is on record?
The value was “equally effective at inhibiting PTP activity”.

With `O=C(O)CCCC[C@@H]1SC[C@@H]2NC(=O)N[C@@H]21` [biotin, reference compound] as the molecule, how does the “covalent labeling of PTPs” value [1] read?
The value was “did not label the PTPs”.

With arsenate [reference compound] as the molecule, how does the “protection of PTP from BBP-mediated inactivation” value [6] read?
Its value is “able to protect PTP from BBP-mediated inactivation”.
